Source: US7012072B2, “Pharmaceutical oxaliplatinum preparation for parenteral administration and method for obtaining same” (Debiopharm S.A., priority 2000, dated 2006)

Tests used:
Format in all cases: physicochemical
[1] = Preparation of concentrated oxaliplatin solutions in solvent with hydroxylated derivative; details: solvent with sufficient amount of 1,2-propanediol, glycerol, maltitol, sucrose or inositol
Description: One of the co-solvents chosen from 1,2-propanediol, glycerol and maltitol, respectively, is introduced into the receptacle at the same time as or prior to the addition of water to make the volume up to 25 ml, according to the corresponding volume/volume or weight/volume ratios as indicated in the various tables.
After returning to ambient temperature, namely approximately 20° C., a clarifying filtration operation is optionally carried out in order to ensure clarity.

[2] = Wet heat treatment of oxaliplatin solutions in an autoclave, observation after return to ambient temperature; details: for Observation after storage (black precipitate): degassed with argon; for Observatios: appearance of solution: 24 hours after treatment
From the text: The mixtures as obtained by applying the method described in example 1, and according to the relative amounts indicated in table 1, […] well known to a specialist. […]

[3] = Wet heat sterilization, three successive cycles at 80° C., observation after 72 hours at refrigerator temperature; details: 10 mg/ml, 3 cycles 80° C. ± 2, 30 min, 24 h standing at approx. 20° C.
Description: They were then subjected to operations of wet heat sterilization by carrying out three successive cycles of heating at a temperature of 80° C., followed by a return to an ambient temperature of approximately 20° C.
The solutions thus treated were kept, before observation, at refrigerator temperature for 72 hours.

[4] = 10 mg/ml supersaturated, water for injectable preparation, 80° C. ± 2, 30 min

## O=C1[O][Pt]2([NH][C@@H]3CCCC[C@H]3[NH]2)[O]C1=O [Oxaliplatin]
[1]
  concentration of oxaliplatin obtained in the preparation: over 7 mg/ml
[2]; 10 mg/ml supersaturated, water for injectable preparation, no co-solvent, 120° C. ± 2, 90 min
  Observation after storage: presence of black precipitate
[2]; [4]
  Observation after storage: appearance of solution: solution has a clear appearance
  Observation after storage: precipitate: no presence of precipitate
[2]; 10 mg/ml, 1,2-propanediol/water 20/20 (V/V), 110° C. ± 2, 120 min
  Observation after storage (black precipitate): presence of
[2]; 10 mg/ml, 1,2-propanediol/water 20/20 (V/V), 120° C. ± 2, 150 min
  Observation after storage (black precipitate): presence of
[2]; 10 mg/ml, 1,2-propanediol/water 50/50 (V/V), 70° C. ± 2, 30 min
  Observatios: appearance of solution: clear
[2]; 10 mg/ml, 85% glycerol/water 20/20 (V/V), 110° C. ± 2, 120 min
  Observation after storage (black precipitate): presence of
[2]; 10 mg/ml, 85% glycerol/water 20/20 (V/V), 120° C. ± 2, 150 min
  Observation after storage (black precipitate): presence of
[2]; 10 mg/ml, 85% glycerol/water 50/50 (V/V), 70° C. ± 2, 30 min
  Observatios: appearance of solution: clear
[2]; 10 mg/ml, maltitol/water 50% (m/V), 110° C. ± 2, 120 min
  Observation after storage (black precipitate): presence of
[2]; 10 mg/ml, maltitol/water 50% (m/V), 120° C. ± 2, 150 min
  Observation after storage (black precipitate): presence of
[2]; 10 mg/ml, maltitol/water 50% (m/V), 70° C. ± 2, 30 min
  Observatios: appearance of solution: clear
[2]; 12 mg/ml, maltitol/water 30% (m/V), 80° C. ± 2, 30 min
  Observatios: appearance of solution: clear
[3]; 1,2-propanediol/water for injectable preparation 50/50 (V/V)
  Observations: appearance of solution: clear appearance
[3]; 85% glycerol/water for injectable preparation 50/50 (V/V)
  Observations: appearance of solution: clear appearance
[3]; maltitol/water for injectable preparation 50% (m/V)
  Observations: appearance of solution: clear appearance
